Assay results from PMC10391610, “Survivin prevents the polycomb repressor complex 2 from methylating histone 3 lysine 27” (iScience, 2023).

Biological target: T1, survivin (Homo sapiens, UniProt O15392)
T1 construct: transferred to the survivin1-142 construct used in the present study; His8 tag (pHIS8 vector, thrombin-cleavable); made in house; host or cells: E. coli BL21(DE3) star
Assay: PEPperCHIP peptide microarray, survivin interaction
Format: binding
Details: 1 μg/mL survivin
Excerpt: We were looking for potential direct interactions between survivin and short peptide sequences originating from PRC2 subunits and other proteins involved in histone modifications based on the in vivo results. Therefore, we created a peptide microarray of overlapping peptides obtained from EZH2, EED, SUZ12, and JARID2 to investigate how survivin interacts with the activity of the PRC2 complex. These subunits form the core of PRC2, and the interaction of survivin with the PRC2 molecular scaffold indicates a potentially disruptive role for survivin in PRC2 function. The fluorescence signal generated by labeled survivin is compared in Figure 2 as a function of position along the polypeptide chain of PRC2 subunits. Figure S1 depicts the raw fluorescence images. Moreover, the microarray fluorescence intensities projected on the three-dimensional structure of the PRC2 core complex are shown in Figure 3. The whole dataset is deposited at the Zenodo data base.
The location of survivin on the peptide microarray was clearly correlated with the amino acid content of the peptide at 1 μg/mL survivin concentration. When evaluating how accurate the predictions were, one should keep in mind that the primary and higher-order structures of the peptide were not at all considered in this analysis. Mislabeling peptides is possible for multiple reasons. The smallest fluorescence signal was chosen as the limit of detection and photon-counting errors may cause weak interactions to be undetected at low fluorescence intensities. Moreover, if the fluorescence intensity of experimental duplicates varied by more than 40%, a peptide was classified as non-interacting even if the lack of reproducibility is ambiguous evidence for the lack of interaction. […] Reducing the number of hidden layer perceptrons from 100 (the default value) to 9 had no effect on the classifier’s performance. Even a 15 amino acid peptide segment composition gives a high degree of uniqueness and highly scalable intensity for survivin-peptide interaction. Survivin has a non-globular structure with no deep binding pockets.
A peptide microarray was designed using the protein sequences from: Cdk1 (P06493), KAT2A/GCN5 (Q92830), SPI1/PU1 (P17947), SUZ12 (Q15022), EED (O75530), JADE3 (Q92613), DIABLO/SMAC (Q9NR28), BOREALIN (Q53HL2), INCENP (Q9NQS7), SGOL1 (Q5FBB7), SGOL2 (Q562F6), EZH2 (Q15910), JARID2 (Q92833), Histone H3 (P68431), AURORAKB (Q96GD4), JADE1 (Q6IE81), JTB (O76095), EVI5 (O60447), RAN (P62826), USP9X (Q93008), C-IAP1 (Q13490), STAT3 (P40763), BRUCE/APOLLON (Q9NR09), XPO1 (O14980), CDX2 (Q99626), Msx2 (P35548), RBM15 (Q96T37), PHF21A (Q96BD5), PHF8 (Q9UPP1), DIDO (Q9BTC0), JADE2 (Q9NQC1) and HASPIN (Q8TF76). The Uniprot ID is shown in parenthesis. The protein sequences were divided into 15 amino acid long peptides with a 10 amino acid overlap. To investigate background interactions with the protein-derived peptides that could interfere with the main assays, one of the PEPperCHIP Peptide Microarrays (PEPperPRINT Gmbh) was pre-staining with the secondary 6x His Tag Antibody DyLight680 antibody at a dilution of 1:1000 and with the monoclonal anti-HA (12CA5)-DyLight800 control antibody at a dilution of 1:1000. Subsequent incubation of other peptide microarray copies with survivin at a concentration of 1 μg/ml in incubation buffer was followed by staining with the secondary 6x His Tag Antibody DyLight680 antibody (Rockland Immunochemicals, Pottstown, PA, USA) and the monoclonal anti-HA (12CA5)-DyLight800 control antibody (Rockland Immunochemicals, Pottstown, PA, USA). The read-out was performed by scanning intensities of 7/7 (red/green). As an internal quality control, HA and His tag control peptides were stained simultaneously to confirm assay quality and to facilitate grid alignment for data quantification. The LI-COR Odyssey Imaging System was used for read-out, and the PepSlide Analyzer was used for quantification of spot intensities and peptide annotation. […]

T1 sequence (O15392 whole entry): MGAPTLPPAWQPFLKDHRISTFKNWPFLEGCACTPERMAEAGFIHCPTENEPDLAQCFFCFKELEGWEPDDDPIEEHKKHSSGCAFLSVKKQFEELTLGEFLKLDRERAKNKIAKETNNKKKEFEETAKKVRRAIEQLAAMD

Sequence: VELVNALGQYNDDDDDDDGD DPEEREEKQKDLEDHRDDKE [EZH2_172-211, PRC2-derived peptide, EZH2 residues 172–211, synthesized by Biomatik]
- Average FI (%) (anti-His tag DyLight680 read-out, percentage of maximum fluorescence intensity units (64193) per peptide, 15-mer microarray peptides covering the residues): 71%
- Integrated FI (in units of the maximum FI per peptide, 15-mer microarray peptides covering the residues): 4.28
- survivin interaction / fluorescence on microarray (in words) (peptide microarray): high survivin-associated fluorescence intensity
